Measured values from patent US5871946A, “Method for determining activity of enzymes in metabolically active whole cells” (priority 1995, dated 1999).
Where “and” joins values, the source holds several entries; their conditions need not be identical. Equal values may be shown once. Blank lines part the entries; values can stand above or below the compound they belong to.

Experiments:
[1] = tested on: cells of normals and HIV + patients; assay: Substrate panel in cells of normals and HIV+ patients, possible TB infection (Table 4); type: cell-based, human
Protocol: A panel of assay compounds are assembled consisting of Ala-aminopeptidase and Lys-aminopeptidase, Dipeptidyl peptidase IV (Ala-Ala)2 rhodamine 110 and Cathepsin D to indicate possible TB infection in AIDS related cases.
A panel of enzymatic substrates is performed consisting of Ala-aminopeptidase and Lys-aminopeptidase, Dipeptidyl peptidase IV (Ala-Ala)2 rhodamine 110 and Cathepsin D to indicate possible TB infection in AIDS related cases.

LYMPHOCYTES = assay: Disease to normal ratio of enzyme activity, lymphocytes (Table 5); type: cell-based, human
Excerpt: (§1) A normal in house adult donor pool was drawn, recording sex and determining that no known disease state was present at the time of sample draw. Criteria for rejecting samples included patients under medication, patients with infection or inflammation of any type, colds and flu as well as any known medical illness such as cancer, heart ailment and high blood pressure. A donor list of 75 patients has been developed and a mean and 2 sd range established. A subgroup of "super normals" was developed from this list by examining the 75 patients to determine which group falls closest to the mean for all enzymes in all cell types tested. These patients were used as the "wellness index" or best group of "normalcy" patients. If a study required the use of children or newborns then this same format was used to develop a data base for these age groups.

MONOCYTES = assay: Disease to normal ratio of enzyme activity, monocytes (Table 5); type: cell-based, human
Excerpt: as §1

amino peptidase = assay: Aminopeptidase activity in acute lympholytic Ficoll prepared lymphocytes; type: cell-based; conditions: FIG. 4B
Excerpt: The cell's ability to fight off an invader lies within its genetics and therefore cell type. The "readiness" however of any genetically capable group of cells to defend is different. A measure of this "readiness" is manifest in the available proteolytic enzymes contained within vacuoles or on the surface of the cell. The assay compound hydrolysis rate increases with increased mass of enzymes giving a picture of immune competence both in number of cells and activity level. […] Images were generated using Universal Imaging.

[2] = Modulators of sensitivity of rhodamine 110 substrates; type: cell-based; conditions: 1 mM
Excerpt: Modulators are components used to […] the sensitivity of the enzyme for the leaving group. The modulators speed up or slow down the activity of an enzyme by changing the active site. […] Preferred modulators for particular enzymes are included in Table 1.

[3] = Effect of sodium chloride on dipeptide reagent; type: cell-based; conditions: 7 mM, pH range 6.5 to 8.7
Excerpt: Inhibitors and poisons (or toxins) are components that can be added to reduce the activity of non-targeted enzymes that provide competing reactions for the leaving group. Inhibitors are usually very selective for a particular enzyme. For example, EDTA only works with enzymes requiring Ca^+2, Mg^+2 and some other metals. […] Preferred inhibitors for particular enzymes are included in Table 1.

[4] = Inflam. Bowel Dis., monocytes section

Structure (SMILES): NC(=O)CC[C@H](N)C(=O)N[C@@H](CO)C(=O)Nc1ccc2c(c1)Oc1cc(NC(=O)[C@H](CO)NC(=O)[C@@H](N)CCC(N)=O)ccc1C21OC(=O)c2ccccc21 (relative stereo) [GLN--SER*]
- MEAN DELTA FL ([1]; HIV + PATIENTS): 13.7 and 12.7
- MEAN DELTA FL ([1]; NORMALS): 11.9 and 6.1

Structure (SMILES): C[C@H](N)C(=O)NCC(=O)Nc1ccc2c(c1)Oc1cc(NC(=O)CNC(=O)[C@H](C)N)ccc1C21OC(=O)c2ccccc21 [ALA--GLY****]
- MEAN DELTA FL ([1]; HIV + PATIENTS): 39.9
- MEAN DELTA FL ([1]; HIV + PATIENTS, listed as ALA--GLY*): 29.7
- MEAN DELTA FL ([1]; NORMALS): 48.0
- MEAN DELTA FL ([1]; NORMALS, listed as ALA--GLY*): 31.6

- enzymatic activity (amino peptidase): lost their enzymatic activity
Structure (SMILES): CC(C)C[C@H](N)C(=O)Nc1ccc2c(c1)Oc1cc(NC(=O)[C@@H](N)CC(C)C)ccc1C21OC(=O)c2ccccc21 [LEU, (Leu)2 Rho 110]
- Ratio of disease to normal (LYMPHOCYTES; Dermatomyositis): 1.36
- Ratio of disease to normal (LYMPHOCYTES; Inflam. Bowel Dis.): 1.34
- Ratio of disease to normal (LYMPHOCYTES; Lupus): 1.93
- Ratio of disease to normal (LYMPHOCYTES; Rheumatic Fever): 1.05
- Ratio of disease to normal (MONOCYTES; Dermatomyositis, monocytes): 1.35
- Ratio of disease to normal (MONOCYTES; [4]): 1.13
- Ratio of disease to normal (MONOCYTES; JRA, monocytes): 1.44
- Ratio of disease to normal (MONOCYTES; Lupus, monocytes): 44.44

Structure (SMILES): C[C@H](NC(=O)[C@@H](N)CCCCN)C(=O)Nc1ccc2c(c1)Oc1cc(NC(=O)[C@H](C)NC(=O)[C@@H](N)CCCCN)ccc1C21OC(=O)c2ccccc21 [LYS--ALA^2]
- MEAN DELTA FL ([1]; HIV + PATIENTS): 7.9
- MEAN DELTA FL ([1]; HIV + PATIENTS, listed as LYS--ALA^1): 121.5
- MEAN DELTA FL ([1]; NORMALS): 7.6
- MEAN DELTA FL ([1]; NORMALS, listed as LYS--ALA^1): 112.6

Structure (SMILES): C[C@@H](O)[C@H](NC(=O)OCc1ccccc1)C(=O)N1CCC[C@H]1C(=O)Nc1ccc2c(c1)Oc1cc(NC(=O)[C@@H]3CCCN3C(=O)[C@@H](NC(=O)OCc3ccccc3)[C@@H](C)O)ccc1C21OC(=O)c2ccccc21 [Z-TP6.5, (carbobenzyloxycarbonyl-Thr-Pro)2 Rho 110 (pH 6.5)]
- Ratio of disease to normal (LYMPHOCYTES; Dermatomyositis): 3.87
- Ratio of disease to normal (LYMPHOCYTES; Inflam. Bowel Dis.): 3.03
- Ratio of disease to normal (LYMPHOCYTES; JRA): 2.89
- Ratio of disease to normal (LYMPHOCYTES; Kawasaki's): 5.85
- Ratio of disease to normal (LYMPHOCYTES; Rheumatic Fever): 7.19
- Ratio of disease to normal (MONOCYTES; Dermatomyositis, monocytes): 3.12
- Ratio of disease to normal (MONOCYTES; [4]): 2.83
- Ratio of disease to normal (MONOCYTES; JRA, monocytes): 8.33
- Ratio of disease to normal (MONOCYTES; Lupus, monocytes): 2.29
- Ratio of disease to normal (MONOCYTES; Rheumatic Fever, monocytes): 5.37

- effect on sensitivity of the leaving group for the enzyme ([2]; Ala-Gly and Leu-Gly substrates): does not change the sensitivity
Structure (SMILES): O[C@H](CS)[C@@H](O)CS [dithioerythritol (DTE), dithioerythritol]
- effect on sensitivity of substituted rhodamine 110 substrates ([2]; Pro, Gly, Gln-Ser, Val-Lys-Val-Lys, Ala-Ala, Ala-Ala-Ala-Ala substrates): decreases the sensitivity

Structure (SMILES): [Cl-].[Na+] [sodium chloride]
- inhibitory effect on dipeptide reagent [3]: slightly inhibitory effect
